According to ChEMBL document CHEMBL6153103, “Novel Bioorthogonal Theranostic Scaffold Enables on-Target Drug Release and Real Time Monitoring In Vivo” (J Med Chem, 2025):
Active and inactive are the calls of the source. No cut-off for these calls is given here.

Tests used:
A549 [1] = assay: Cytotoxicity against human A549 cells assessed as inhibition of cell proliferation incubated for 72 hrs by CCK-8 assay; format: functional, cell-based; settings: A549, 72 h
HeLa [2] = assay: Cytotoxicity against human HeLa cells assessed as inhibition of cell proliferation incubated for 72 hrs by CCK-8 assay; format: functional, cell-based
A549 [3] = assay: Cytotoxicity against human A549 cells assessed as inhibition of cell proliferation incubated for 72 hrs in presence of 80 uM 4-(6-methyl-1,2,4,5-tetrazin-3-yl)benzyl 3-(2-hydroxyethoxy)-2,3-dihydrophenanthro[9,10-b][1,4]dioxine-7-carboxylate by CCK-8 assay; format: functional, cell-based; settings: A549, 72 h
A549 [4] = assay: Cytotoxicity against human A549 cells assessed as inhibition of cell proliferation incubated for 72 hrs in presence of 10 uM 4-(6-methyl-1,2,4,5-tetrazin-3-yl)benzyl 3-(2-hydroxyethoxy)-2,3-dihydrophenanthro[9,10-b][1,4]dioxine-7-carboxylate by CCK-8 assay; format: functional, cell-based; settings: A549, 72 h
A549 [5] = assay: Cytotoxicity against human A549 cells assessed as inhibition of cell proliferation incubated for 72 hrs in presence of 60 uM 4-(6-methyl-1,2,4,5-tetrazin-3-yl)benzyl 3-(2-hydroxyethoxy)-2,3-dihydrophenanthro[9,10-b][1,4]dioxine-7-carboxylate by CCK-8 assay; format: functional, cell-based; settings: A549, 72 h
A549 [6] = assay: Cytotoxicity against human A549 cells assessed as cell viability incubated for 72 hrs by CCK-8 assay; format: functional, cell-based; settings: A549, 72 h
A549 [7] = assay: Cytotoxicity against human A549 cells assessed as inhibition of cell proliferation upto 20 uM incubated for 72 hrs by CCK-8 assay; format: functional, cell-based
[8] = Prodrug release in human A549 cells xenografted in BALB/c nude mouse assessed as DOX release by measuring change in green fluorescence intensity in tumor at 5 mg/kg, ip administered for 1 hr by DAPI staining based confocal microscopic analysis; format: ADME, organism-based; settings: in vivo
[9] = Prodrug activation in human A549 cells xenografted in BALB/c nude mouse assessed as blue fluorescence intensity in tumor at 5 mg/kg, ip administered for 1 hr by confocal microscopic analysis; format: organism-based; settings: in vivo
HeLa [10] = assay: Cytotoxicity against human HeLa cells assessed as inhibition of cell proliferation incubated for 72 hrs 15 uM of 4-(6-methyl-1,2,4,5-tetrazin-3-yl)benzyl 3-(2-hydroxyethoxy)-2,3-dihydrophenanthro[9,10-b][1,4]dioxine-7-carboxylate by CCK-8 assay; format: functional, cell-based
[11] = Cytotoxicity against human HEK293T cells assessed as inhibition of cell proliferation incubated for 72 hrs 15 uM of 4-(6-methyl-1,2,4,5-tetrazin-3-yl)benzyl 3-(2-hydroxyethoxy)-2,3-dihydrophenanthro[9,10-b][1,4]dioxine-7-carboxylate by CCK-8 assay; format: toxicity, cell-based, HEK-293T
[12] = Cytotoxicity against human HEK293T cells assessed as inhibition of cell proliferation incubated for 72 hrs 15 uM of (4-((2-((10-(((4-(6-methyl-1,2,4,5-tetrazin-3-yl)benzyl)oxy)carbonyl)-2,3-dihydrophenanthro[9,10-b][1,4]dioxin-2-yl)oxy)ethoxy)carbonyl)phenyl)boronic acid by CCK-8 assay; format: toxicity, cell-based, HEK-293T
[13] = Cytotoxicity against human HEK293T cells assessed as inhibition of cell proliferation incubated for 72 hrs by CCK-8 assay; format: toxicity, cell-based, HEK-293T
[14] = Drug uptake in human HeLa cells assessed as increase in blue fluorescence intensity at 100 uM incubated for 1 hr by confocal fluorescence microscopic analysis; format: ADME, cell-based
A549 [15] = assay: Cytotoxicity against human A549 cells assessed as inhibition of cell proliferation incubated for 72 hrs in presence of 15 uM 4-(6-methyl-1,2,4,5-tetrazin-3-yl)benzyl 3-(2-hydroxyethoxy)-2,3-dihydrophenanthro[9,10-b][1,4]dioxine-7-carboxylate by CCK-8 assay; format: functional, cell-based; settings: A549, 72 h
[16] = Prodrug release in human A549 cells assessed as DOX release by measuring increase in fluorescence intensity at 100 uM measured after 2 hrs by confocal microscopy; format: ADME, cell-based; settings: a549, 2 h
HeLa [17] = assay: Cytotoxicity against human HeLa cells assessed as inhibition of cell proliferation incubated for 72 hrs 15 uM of (4-((2-((10-(((4-(6-methyl-1,2,4,5-tetrazin-3-yl)benzyl)oxy)carbonyl)-2,3-dihydrophenanthro[9,10-b][1,4]dioxin-2-yl)oxy)ethoxy)carbonyl)phenyl)boronic acid by CCK-8 assay; format: functional, cell-based
[18] = Drug uptake in human HEK293T cells assessed as increase in blue fluorescence intensity at 100 uM incubated for 1 hr by confocal fluorescence microscopic analysis; format: ADME, cell-based; settings: hek-293t
[19] = Prodrug release in human A549 cells assessed as DOX release by measuring increase in fluorescence intensity at 50 uM measured after 2 hrs by confocal microscopy; format: ADME, cell-based; settings: a549, 2 h

CO[C@@]12[C@H](COC(N)=O)C3=C(C(=O)C(C)=C(N)C3=O)N1C[C@@H]1N[C@@H]12 [MITOMYCIN]
IC50 (A549 [1]): 30 nM

COc1cccc2c1C(=O)c1c(O)c3c(c(O)c1C2=O)C[C@@](O)(C(=O)CO)C[C@@H]3O[C@H]1C[C@H](N)[C@H](O)[C@H](C)O1 [DOXORUBICIN]
IC50 (HeLa [2]): 14 nM

[C-]#[N+]CCCOC(=O)N1[C@H]2[C@@H]1CN1C3=C(C(=O)C(N)=C(C)C3=O)[C@@H](COC(N)=O)[C@@]21OC
IC50 (A549 [3]): 239 nM | IC50 (A549 [1]): 359 nM | IC50 (A549 [4]): 313 nM | IC50 (A549 [5]): 239 nM

Cc1nnc(-c2ccc(COC(=O)c3ccc4c5c(c6ccccc6c4c3)OCC(OCCO)O5)cc2)c2c1CCCCCC2 (centres undefined)
EC50 (A549 [6]): > 50 µM | Activity (A549 [7]): Active

Cc1nnc(-c2ccc(COC(=O)c3ccc4c5c(c6ccccc6c4c3)OCC(OCCOC(=O)c3ccc(B(O)O)cc3)O5)cc2)nn1 (centres undefined)
Drug metabolism [8]: metabolite_detected | Drug metabolism [9]: metabolite_notdetected

COc1cccc2c1C(=O)c1c(O)c3c(c(O)c1C2=O)C[C@@](O)(C(=O)CO)C[C@@H]3O[C@H]1C[C@H](NC(=O)OC2/C=C/CCCCC2)[C@H](O)[C@H](C)O1 (some centres undefined)
IC50 (HeLa [10]): 59 nM | Drug metabolism [8]: metabolite_detected | IC50 (A549 [1]): 537 nM | IC50 at 72 h [11]: 126 nM | IC50 at 72 h [12]: 145 nM | IC50 (A549 [4]): 67 nM | IC50 at 72 h [13]: 1150 nM | IC50 (HeLa [2]): 989 nM | Drug uptake [14]: Not_active | IC50 (A549 [15]): 58 nM | Drug metabolism [16]: metabolite_detected | IC50 (HeLa [17]): 30 nM | Drug metabolism [9]: metabolite_notdetected | Drug uptake [18]: Not_active

Cc1nnc(-c2ccc(COC(=O)c3ccc4c5c(c6ccccc6c4c3)OCC(OCCO)O5)cc2)nn1 (centres undefined)
EC50 (A549 [6]): > 50 µM | Drug uptake [14]: Not_active | Activity (A549 [7]): Active | Drug metabolism [19]: metabolite_detected | Drug uptake [18]: Not_active
